Results reported in PubChem BioAssay (NCI).
“And” between values parts separate entries of the source, which are not always exact repeats. Equal entries are not always repeated.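 Interpolation was linear, between the two tested concentrations surrounding the appropriate level; five concentrations were tested over 48 hours in 96-well plates. The concentration for 50% growth inhibition is given as GI50. Definition used: TGI = concentration required for complete inhibition of growth.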

Tests used:
Assay in all cases: growth of human tumour cells (NCI), 48 h
SN12C renal = system: SN12C renal
SF-295 CNS = system: SF-295 CNS
HOP-62 NSCLC = system: HOP-62 NSCLC
KM12 colon = system: KM12 colon
KM20L2 colon = system: KM20L2 colon
NCI-H23 lung = system: NCI-H23 lung
M19-MEL melanoma = system: M19-MEL melanoma
DLD-1 colon = system: DLD-1 colon
NCI/ADR-RES ovarian = system: NCI/ADR-RES ovarian
T-47D breast = system: T-47D breast

SMILES	TGI (SN12C renal)	TGI (SF-295 CNS)	TGI (HOP-62 NSCLC)	TGI (KM12 colon)	TGI (KM20L2 colon)	TGI (NCI-H23 lung)	TGI (M19-MEL melanoma)	TGI (DLD-1 colon)	GI50 (NCI/ADR-RES ovarian)	TGI (NCI/ADR-RES ovarian)	GI50 (T-47D breast)	TGI (T-47D breast)	GI50 (SN12C renal)	GI50 (KM12 colon)	GI50 (NCI-H23 lung)
O=C(c1ccccc1)c1c(-c2ccccc2)sc2nc3ccccc3nc12	> 100 µM	> 100 µM	> 100 µM	> 100 µM	> 100 µM	> 100 µM	> 100 µM	–	–	–	–	–	–	–	–
COc1ccc(NC(=O)CC/C(CC(=O)C(C)(C)C)=N\NC(=O)C(=O)NN)cc1	> 100 µM	> 100 µM	> 100 µM	> 100 µM	> 100 µM	> 100 µM	> 100 µM	> 100 µM	–	–	–	–	–	–	–
CC(C)(C)CC(C)(C)c1cc2c(O)c(c1)Cc1cc(C(C)(C)CC(C)(C)C)cc(c1O)Cc1cc(C(C)(C)CC(C)(C)C)cc(c1O)Cc1cc(C(C)(C)CC(C)(C)C)cc(c1O)Cc1cc(C(C)(C)CC(C)(C)C)cc(c1O)C2	> 100 µM	> 100 µM	> 100 µM	> 100 µM	> 100 µM	> 100 µM	> 100 µM	> 100 µM	–	–	–	–	–	–	–
COc1ccccc1C(O)(c1ccccc1)C(O)(c1ccccc1)c1ccccc1OC (stereo unspecified)	> 100 µM	> 100 µM	> 100 µM	> 100 µM	> 100 µM	> 100 µM	> 100 µM	> 100 µM	–	–	–	–	–	–	–
O=C1Cc2c([nH]c3ccccc23)-c2ccccc2N1	> 100 µM	> 100 µM	97.7 µM	45.2 µM	50.7 µM	61.1 µM	> 100 µM	> 100 µM	–	–	–	–	–	–	–
CCOC(=O)NC1C2CC(=O)OC(O2)C1OC(C)=O (stereo unspecified)	> 100 µM	> 100 µM	> 100 µM	> 100 µM	> 100 µM	> 100 µM	> 100 µM	> 100 µM	> 100 µM	> 100 µM	> 100 µM	> 100 µM	–	–	–
c1ccc2c(NCCCCCCNc3c4ccccc4nc4ccccc34)c3ccccc3nc2c1	4.25 µM	2.18 µM	2.21 µM	1.81 µM	3.05 µM	2.33 µM	2.48 µM	3.29 µM	–	64.2 µM	–	12.5 µM	–	–	–
C[C@]12CC[C@H](OC3OC(CO)C(O)C(O)C3O)C[C@H]1CC[C@@H]1[C@@H]2CC[C@]2(C)[C@@H](C3=CCOC3=O)CC[C@]12O (stereo partly specified)	50 µM and > 100 µM	24.6 µM and > 100 µM and 70.7 µM	13.8 µM and > 100 µM and 50.3 µM	50 µM and > 100 µM	50 µM	50 µM and > 100 µM	37.9 µM	> 50 µM	> 100 µM	50 µM and > 100 µM	4.89 µM	> 100 µM	> 100 µM	> 100 µM	> 100 µM
COc1ccc(-c2cc(=O)c3ccccc3o2)cc1N	> 100 µM	> 100 µM	> 100 µM	> 100 µM	> 100 µM	> 100 µM	> 100 µM	–	–	–	–	–	–	–	–
CN(C)CCNC(=O)c1cccc2nc3cc(Cl)ccc3nc12	10.7 µM	> 27.8 µM	5.61 µM	15.2 µM	9.08 µM	5.26 µM	3.89 µM	20.3 µM	–	–	–	–	–	–	–
